Reference: patent publication US20210032257A1, “(E)-1-(4-(DIMETHYLAMINO)BUT-2-ENOYL)PYRROLIDIN-3-YL 4-((3-ISOPROPYL-5-METHYLPYRAZOLO[1,5-A]PYRIMIDIN-7-YL)AMINO)PIPERIDINE-1-CARBOXYLATE FOR INHIBITING CDK7” (Eli Lilly and Company, priority 2017, published 2021)

How the values were obtained:
ZR751 = assay: Biomarker study proliferation (CellTiter-Glo); type: cell-based
Protocol: Cancer cell lines are profiled to evaluate the anti-proliferative activity of a test compound in-vitro. Mutation, copy number and gene expression information of ARID1A, KMT2C, KMT2D and/or RB1 genes across cancer cell lines is obtained from COSMIC database (cancer.sanger.ac.uk) and cBioportal (http://www.cbioportal.org/). Cells are cultured in growth medium and plated into a 96-well plate in 100 μL/well growth medium at 5000 cells/well then incubated at 37° C., 5% CO2 overnight. Cells are cultured using supplier recommended media and conditions well known in the art, for example with RPMI 1640 with or without HEPES & L-Glutamine (Thermo SH30255.01) and 1 mM Sodium Pyruvate, and 10% FBS(Gibco cat #10082). The 1000× intermediate dilution plate is prepared by making a 10 mM working solution of a test sample in DMSO and performing 1:3 dilutions in DMSO for 10 points. The 10× dosing plate is prepared by adding 2 μL from the 1000× intermediate dilution plate to 198 μL of OPTIMEM®+10% FBS and mixing well. The cell plate is then treated by adding 11 μL from the 10× dosing plate into the 100 μL/well cell plate for a 1× final concentration. Staurosporine is used as a maximum growth inhibition control at a final concentration of 5 μM. The cell plate is incubated for 7 days at 37° C., 5% CO2. Seven days after treatment, Cell Titer-Glo® (Promega cat #G7571) assay buffer and substrate are removed from −20° C. and allowed to equilibrate to RT. Assay buffer is added to the substrate and swirled gently to mix. The CELL TITER-GLO® reagent (100 μL/well) is added to the cell plate and incubated at RT for 15 minutes. After 15 minutes, luminescence is read using a plate reader. Data is analyzed in Excel and graphed in GraphPad Prism. Statistical analysis and p value is calculated using Mann-Whitney nonparameteric t tests using GraphPad Prism.
Anti-proliferative effects of a test compound are categorized as insensitive (IC50≥1 μM), cytostatic (IC50<1 μM and % inhibition <70%) or cytotoxic (IC50<1 μM and % inhibition ≥70%).

CDK9/cyclinT1 = CDK9/cyclinT1 (Homo sapiens, UniProt P50750); assay: Assay for inhibition of CDK9/CyclinT1 kinase activity (radiolabel filter binding)
Sequence of CDK9/cyclinT1 (P50750 whole entry): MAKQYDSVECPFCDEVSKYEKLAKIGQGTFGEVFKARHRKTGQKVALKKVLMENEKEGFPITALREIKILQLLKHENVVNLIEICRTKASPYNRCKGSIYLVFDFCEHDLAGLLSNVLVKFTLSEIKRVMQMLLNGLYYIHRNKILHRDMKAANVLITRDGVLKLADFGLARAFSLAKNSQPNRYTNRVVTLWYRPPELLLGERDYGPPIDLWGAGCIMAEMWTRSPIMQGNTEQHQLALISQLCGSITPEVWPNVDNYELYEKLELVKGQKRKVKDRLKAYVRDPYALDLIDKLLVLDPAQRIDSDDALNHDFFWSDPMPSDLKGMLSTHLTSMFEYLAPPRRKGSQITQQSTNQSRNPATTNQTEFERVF
Sequence of CDK9/cyclinT1 (O60563 whole entry partner): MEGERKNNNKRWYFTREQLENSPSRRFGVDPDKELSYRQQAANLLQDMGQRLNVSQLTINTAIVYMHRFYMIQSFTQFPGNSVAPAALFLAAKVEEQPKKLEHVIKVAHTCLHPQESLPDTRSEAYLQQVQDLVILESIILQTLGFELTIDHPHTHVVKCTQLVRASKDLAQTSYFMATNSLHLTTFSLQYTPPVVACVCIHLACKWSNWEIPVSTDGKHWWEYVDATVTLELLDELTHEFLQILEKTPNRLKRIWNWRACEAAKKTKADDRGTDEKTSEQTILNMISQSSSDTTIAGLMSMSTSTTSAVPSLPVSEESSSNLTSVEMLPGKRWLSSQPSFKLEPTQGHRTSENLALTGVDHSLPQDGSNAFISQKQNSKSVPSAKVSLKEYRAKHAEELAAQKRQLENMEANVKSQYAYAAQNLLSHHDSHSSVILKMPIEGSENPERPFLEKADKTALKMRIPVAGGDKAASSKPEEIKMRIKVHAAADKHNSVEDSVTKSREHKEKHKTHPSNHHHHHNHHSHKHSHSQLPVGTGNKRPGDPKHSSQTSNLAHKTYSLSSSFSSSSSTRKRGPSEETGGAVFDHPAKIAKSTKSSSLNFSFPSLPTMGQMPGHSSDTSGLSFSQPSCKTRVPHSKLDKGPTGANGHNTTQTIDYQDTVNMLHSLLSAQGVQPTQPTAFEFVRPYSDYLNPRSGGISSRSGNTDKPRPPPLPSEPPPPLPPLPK
Protocol: The IC50 determination for CDK7 and CDK9 are determined as follows.
The IC50 activity of the inhibitor is determined using radiolabel filter binding (FB) assays using the purified human recombinant enzyme in the presence of ATP and peptide substrate. The ATP concentrations chosen are at or near the enzyme Km for ATP. Reactions are carried out in 96 well polystyrene plates in a final volume of 25 μL per well. 5 μL of test compound in 20% DMSO, 10 μL of substrate solution (ATP//[^33P]ATP and CDK7/9 tide) and 10 μL of enzyme solution are mixed. […] The enzyme solution is prepared for a final concentration of 7.5 nM CDK9/cyclinT1 enzyme [Proqinase 0371-0345-1 (Lot 004)] diluted in kinase buffer. Test compounds are serially diluted 1:3 in 20% DMSO to create a 10 point curve at a starting concentration of 2 μM. 20% DMSO buffer alone without test compound is employed as high control (full activity in the absence of any inhibitor), 500 mM EDTA is used to determine the level of background in the absence of enzyme activity (low control). After mixing 5 μL of compounds with 10 μL of enzyme solution the plate is incubated for 0 or 180 minutes at 22° C. After that time the reaction is initiated by the addition of 10 μL substrate solution and incubated for 60 minutes at 22° C. […] 80 μL of MICROSCINT™ is added to each well and read on a scintillation counter after an hour. […]

MIAPACA2 xenograft = assay: Xenograft Tumor Model; type: in vivo, mice; conditions: MIAPACA2, Pancreatic, ARID1A; 20 mg/kg PO QDx35
Protocol: (§1) To evaluate in vivo efficacy of a test compound, multiple xenograft tumor models are utilized. Briefly, 5-10×10^6 tumor cells in a 1:1 MATRIGEL® mix (0.2 mL total volume) are injected subcutaneously into the female athymic nude mice (Envigo, Harlan laboratories) for a majority of xenograft tumor models. Alternate mice strains are utilized to establish MDAMB468 (NOD SCID Gamma, Jackson labs), CT26 and EMT6 (BALB/c, Envigo, Harlan Laboratories) xenografts. After allowing tumors to reach a desired size of ˜300-500 mm^3, animals are randomized into groups of 6-8 for efficacy studies. Test compound is administered via oral gavage (PO) at indicated doses and regimens. Tumor growth and body weight are monitored over time to evaluate efficacy and signs of toxicity.
(§2) Test compound is formulated in 5% N-methyl-2-pyrrolidone (NMP) in 1% hydroxyethylcellulose, 0.25% polysorbate 80, 0.05% antifoam in purified water (HEC) and administered by oral gavage (final volume 0.2 mL) at the doses indicated in Table 4. A test compound is formulated on a weekly basis and stored at 4° C. Vehicles are administered to the control groups according the schedules used above using a volume of 0.2 mL per dose. Mice are dosed via oral gavage and tumor samples are collected at termination and stored at −80° C.
(§3) Tumor size and body weight are recorded and analyzed bi-weekly. Blood is collected using DBS (dried blood spot) card 2 hours after dose and at termination. Tumors are collected at study termination, cut into 3 sections and either snap frozen for exposure and protein analysis, or placed in RNAlater® for RNA analysis. Tissue samples are frozen and stored at −80° C.
(§4) Delta T/C % is calculated when the endpoint tumor volume in a treated group is at or above baseline tumor volume. The formula is 100*(T−T0)/(C−C0). Here, T and C are mean endpoint tumor volumes in the treated or control group, respectively. TO and CO are mean baseline tumor volumes in those groups. *: Significant (p<0.05)

HCC1806 xenograft = assay: Xenograft Tumor Model; type: in vivo, mice; conditions: HCC1806, Breast, KMT2C; 20 mg/kg PO QDx28
Protocol: as §1, §2, §3, §4

H441 xenograft = assay: Xenograft Tumor Model; type: in vivo, mice; conditions: H441, Lung; 20 mg/kg PO QDx35
Protocol: as §1, §2, §3, §4

MDAMB468 xenograft = assay: Xenograft Tumor Model; type: in vivo, mice; conditions: MDAMB468, Breast, ARID1A, RB1; NOD SCID Gamma; 20 mg/kg PO QDx28
Protocol: as §1, §2, §3, §4

COLO205 xenograft = assay: Xenograft Tumor Model; type: in vivo, mice; conditions: COLO205, Colorectal; 20 mg/kg PO QDx28
Protocol: as §1, §2, §3, §4

MDAMB231 xenograft = assay: Xenograft Tumor Model; type: in vivo, mice; conditions: MDAMB231, Breast; 20 mg/kg PO QDx35
Protocol: as §1, §2, §3, §4

CT26 xenograft = assay: Xenograft Tumor Model; type: in vivo, mice; conditions: CT26, Colorectal; BALB/c; 20 mg/kg PO QDx24
Protocol: as §1, §2, §3, §4

HCT116 xenograft = assay: Xenograft Tumor Model; type: in vivo, mice; conditions: HCT116, Colorectal, KMT2C; 25 mg/kg PO QDx21
Protocol: as §1, §2, §3, §4

H460 xenograft = assay: Xenograft Tumor Model; type: in vivo, mice; conditions: H460, Lung, ARID1A; 20 mg/kg PO QDx35
Protocol: as §1, §2, §3, §4

MKN45 xenograft = assay: Xenograft Tumor Model; type: in vivo, mice; conditions: MKN45, Stomach, KMT2C; 20 mg/kg PO QDx35
Protocol: as §1, §2, §3, §4

EMT6 xenograft = assay: Xenograft Tumor Model; type: in vivo, mice; conditions: EMT6, Breast; BALB/c; 20 mg/kg PO QDx28
Protocol: as §1, §2, §3, §4

A2780 xenograft = assay: Xenograft Tumor Model; type: in vivo, mice; conditions: A2780, Ovary, ARID1A; 20 mg/kg PO QDx35
Protocol: as §1, §2, §3, §4

## Cc1cc(NC2CCN(C(=O)O[C@H]3CCN(C(=O)/C=C/CN(C)C)C3)CC2)n2ncc(C(C)C)c2n1 [Example 1, [(3S)-1-[(E)-4-(dimethylamino)but-2-enoyl]pyrrolidin-3-yl] 4-[(3-isopropyl-5-methyl-pyrazolo[1,5-a]pyrimidin-7-yl)amino]piperidine-1-carboxylate]
ZR751; Homo sapiens, ZR-75-1, 168 h, read-out: Anti-proliferation effect IC50
  IC50: 43 nM
ZR751; ZR751, BREAST, 7 days
  Anti-proliferation effect % Inh.: 69%
  Anti-proliferation effect Outcome: Cytostatic (cytostatic (IC50<1 μM and % inhibition <70%))
CDK9/cyclinT1
  IC50: 5900 nM
MIAPACA2 xenograft
  Avg. ΔT/C: 10%
HCC1806 xenograft
  Avg. ΔT/C: −87%
H441 xenograft
  Avg. ΔT/C: 0%
MDAMB468 xenograft
  Avg. ΔT/C: −91%
COLO205 xenograft
  Avg. ΔT/C: −4%
MDAMB231 xenograft
  Avg. ΔT/C: −25%
CT26 xenograft
  Avg. ΔT/C: 52%
HCT116 xenograft
  Avg. ΔT/C: −17%
H460 xenograft
  Avg. ΔT/C: 16%
MKN45 xenograft
  Avg. ΔT/C: 57%
EMT6 xenograft
  Avg. ΔT/C: 17%
A2780 xenograft
  Avg. ΔT/C: −41%
